# Measurements reported in PubChem BioAssay (NCI).
#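 Interpolation was linear, between the two tested concentrations surrounding the appropriate level; five concentrations were tested over 48 hours in 96-well plates. TGI: concentration producing complete growth inhibition.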
# Experiments:
# Assay in all cases: NCI anticancer screen, dose series, 48 h
# TK-10 renal = test system: TK-10 renal
# SN12C renal = test system: SN12C renal
# MDA-MB-231 breast = test system: MDA-MB-231 breast
# EKVX NSCLC = test system: EKVX NSCLC
# OVCAR-3 ovarian = test system: OVCAR-3 ovarian
# PC-3 prostate = test system: PC-3 prostate
# NCI-H522 lung = test system: NCI-H522 lung
# HOP-92 NSCLC = test system: HOP-92 NSCLC
# SK-MEL-2 melanoma = test system: SK-MEL-2 melanoma
# HT29 colon = test system: HT29 colon
# OVCAR-4 ovarian = test system: OVCAR-4 ovarian
# HCT-116 colon = test system: HCT-116 colon
# UACC-62 melanoma = test system: UACC-62 melanoma
# MOLT-4 leukemia = test system: MOLT-4 leukemia
# SW-620 colon = test system: SW-620 colon
# BT-549 breast = test system: BT-549 breast
# HCC-2998 colon = test system: HCC-2998 colon
# IGROV1 ovarian = test system: IGROV1 ovarian
# M14 melanoma = test system: M14 melanoma
# MDA-MB-435 = test system: MDA-MB-435
# UO-31 renal = test system: UO-31 renal
# LOX IMVI melanoma = test system: LOX IMVI melanoma
# SNB-19 CNS = test system: SNB-19 CNS
# NCI-H23 lung = test system: NCI-H23 lung
# 786-0 renal = test system: 786-0 renal
# U251 CNS = test system: U251 CNS
# HCT-15 colon = test system: HCT-15 colon
# SK-MEL-5 melanoma = test system: SK-MEL-5 melanoma
# SR leukemia = test system: SR leukemia
# SNB-75 CNS = test system: SNB-75 CNS
# K-562 leukemia = test system: K-562 leukemia
# RXF 393 renal = test system: RXF 393 renal
# OVCAR-5 ovarian = test system: OVCAR-5 ovarian
# ACHN renal = test system: ACHN renal
# RPMI-8226 leukemia = test system: RPMI-8226 leukemia
# DU-145 prostate = test system: DU-145 prostate
# NCI/ADR-RES ovarian = test system: NCI/ADR-RES ovarian
# SF-539 CNS = test system: SF-539 CNS
# MDA-N = test system: MDA-N
# SF-295 CNS = test system: SF-295 CNS
# SK-OV-3 ovarian = test system: SK-OV-3 ovarian
# OVCAR-8 ovarian = test system: OVCAR-8 ovarian
# COLO 205 colon = test system: COLO 205 colon
# A549 NSCLC = test system: A549 NSCLC
# HOP-62 NSCLC = test system: HOP-62 NSCLC
# UACC-257 melanoma = test system: UACC-257 melanoma
# SF-268 CNS = test system: SF-268 CNS
# KM12 colon = test system: KM12 colon
# MCF7 breast = test system: MCF7 breast
# CCRF-CEM leukemia = test system: CCRF-CEM leukemia
# HS 578T breast = test system: HS 578T breast
# CAKI-1 renal = test system: CAKI-1 renal
# SK-MEL-28 melanoma = test system: SK-MEL-28 melanoma
# NCI-H460 lung = test system: NCI-H460 lung
# T-47D breast = test system: T-47D breast
# HL-60(TB) leukemia = test system: HL-60(TB) leukemia
# NCI-H226 lung = test system: NCI-H226 lung
# A498 renal = test system: A498 renal
# MALME-3M melanoma = test system: MALME-3M melanoma
structure (smiles),measurement,setting,value
CCOC(=O)N/N=C(\Cc1ccc([N+](=O)[O-])cc1)OCC,TGI,TK-10 renal,> 100 µM
same,TGI,SN12C renal,> 100 µM
same,TGI,MDA-MB-231 breast,> 100 µM
same,TGI,EKVX NSCLC,> 100 µM
same,TGI,OVCAR-3 ovarian,> 100 µM
same,TGI,PC-3 prostate,> 100 µM
same,TGI,NCI-H522 lung,> 100 µM
same,TGI,HOP-92 NSCLC,> 100 µM
same,TGI,SK-MEL-2 melanoma,> 100 µM
same,TGI,HT29 colon,> 100 µM
same,TGI,OVCAR-4 ovarian,> 100 µM
same,TGI,HCT-116 colon,> 100 µM
same,TGI,UACC-62 melanoma,> 100 µM
same,TGI,MOLT-4 leukemia,> 100 µM
same,TGI,SW-620 colon,> 100 µM
same,TGI,BT-549 breast,> 100 µM
same,TGI,HCC-2998 colon,> 100 µM
same,TGI,IGROV1 ovarian,> 100 µM
same,TGI,M14 melanoma,> 100 µM
same,TGI,MDA-MB-435,> 100 µM
same,TGI,UO-31 renal,> 100 µM
same,TGI,LOX IMVI melanoma,> 100 µM
same,TGI,SNB-19 CNS,> 100 µM
same,TGI,NCI-H23 lung,> 100 µM
same,TGI,786-0 renal,> 100 µM
same,TGI,U251 CNS,> 100 µM
same,TGI,HCT-15 colon,> 100 µM
same,TGI,SK-MEL-5 melanoma,> 100 µM
same,TGI,SR leukemia,> 100 µM
same,TGI,SNB-75 CNS,> 100 µM
same,TGI,K-562 leukemia,> 100 µM
same,TGI,RXF 393 renal,> 100 µM
same,TGI,OVCAR-5 ovarian,> 100 µM
same,TGI,ACHN renal,> 100 µM
same,TGI,RPMI-8226 leukemia,> 100 µM
same,TGI,DU-145 prostate,> 100 µM
same,TGI,NCI/ADR-RES ovarian,> 100 µM
same,TGI,SF-539 CNS,> 100 µM
same,TGI,MDA-N,> 100 µM
same,TGI,SF-295 CNS,> 100 µM
same,TGI,SK-OV-3 ovarian,> 100 µM
same,TGI,OVCAR-8 ovarian,> 100 µM
same,TGI,COLO 205 colon,> 100 µM
same,TGI,A549 NSCLC,> 100 µM
same,TGI,HOP-62 NSCLC,> 100 µM
same,TGI,UACC-257 melanoma,> 100 µM
same,TGI,SF-268 CNS,> 100 µM
same,TGI,KM12 colon,> 100 µM
same,TGI,MCF7 breast,> 100 µM
same,TGI,CCRF-CEM leukemia,> 100 µM
C[C@@H](CO)C1=CC(C#C[Si](C)(C)C)N(C(=O)Oc2ccccc2)c2ccccc21 (stereo not given in full),TGI,TK-10 renal,79.5 µM
same,TGI,SN12C renal,30.9 µM
same,TGI,MDA-MB-231 breast,37.8 µM
same,TGI,EKVX NSCLC,53.7 µM
same,TGI,OVCAR-3 ovarian,26.9 µM
same,TGI,HS 578T breast,47 µM
same,TGI,PC-3 prostate,64.1 µM
same,TGI,NCI-H522 lung,33.9 µM
same,TGI,HOP-92 NSCLC,24.6 µM
same,TGI,SK-MEL-2 melanoma,35.3 µM
same,TGI,HT29 colon,35.2 µM
same,TGI,OVCAR-4 ovarian,27 µM
same,TGI,HCT-116 colon,29 µM
same,TGI,UACC-62 melanoma,21.9 µM
same,TGI,MOLT-4 leukemia,> 100 µM
same,TGI,SW-620 colon,> 100 µM
same,TGI,HCC-2998 colon,29.9 µM
same,TGI,IGROV1 ovarian,36.4 µM
same,TGI,CAKI-1 renal,56.8 µM
same,TGI,SK-MEL-28 melanoma,36.3 µM
same,TGI,M14 melanoma,35.6 µM
same,TGI,MDA-MB-435,15.5 µM
same,TGI,UO-31 renal,30.4 µM
same,TGI,LOX IMVI melanoma,32.4 µM
same,TGI,NCI-H460 lung,37.4 µM
same,TGI,SNB-19 CNS,82 µM
same,TGI,NCI-H23 lung,23.1 µM
same,TGI,786-0 renal,31.8 µM
same,TGI,T-47D breast,51.1 µM
same,TGI,U251 CNS,35.8 µM
same,TGI,HCT-15 colon,21.7 µM
same,TGI,SK-MEL-5 melanoma,30.5 µM
same,TGI,SR leukemia,> 100 µM
same,TGI,SNB-75 CNS,36.1 µM
same,TGI,K-562 leukemia,95.5 µM
same,TGI,RXF 393 renal,20 µM
same,TGI,HL-60(TB) leukemia,57.2 µM
same,TGI,OVCAR-5 ovarian,57.1 µM
same,TGI,ACHN renal,42.1 µM
same,TGI,NCI-H226 lung,44 µM
same,TGI,RPMI-8226 leukemia,90.4 µM
same,TGI,DU-145 prostate,48.1 µM
same,TGI,NCI/ADR-RES ovarian,31.3 µM
same,TGI,SF-539 CNS,41.6 µM
same,TGI,MDA-N,23.7 µM
same,TGI,SF-295 CNS,28.1 µM
same,TGI,SK-OV-3 ovarian,56.3 µM
same,TGI,OVCAR-8 ovarian,35 µM
same,TGI,COLO 205 colon,> 100 µM
same,TGI,A549 NSCLC,61.4 µM
same,TGI,HOP-62 NSCLC,30 µM
same,TGI,UACC-257 melanoma,38.3 µM
same,TGI,SF-268 CNS,39 µM
same,TGI,KM12 colon,34.1 µM
same,TGI,CCRF-CEM leukemia,72.6 µM
O=Nc1sc(=N\O)/c(=N/O)sc1NO,TGI,SN12C renal,> 100 µM
same,TGI,MDA-MB-231 breast,> 100 µM
same,TGI,EKVX NSCLC,> 100 µM
same,TGI,OVCAR-3 ovarian,> 100 µM
same,TGI,PC-3 prostate,> 100 µM
same,TGI,NCI-H522 lung,> 100 µM
same,TGI,HOP-92 NSCLC,> 100 µM
same,TGI,SK-MEL-2 melanoma,> 100 µM
same,TGI,HT29 colon,> 100 µM
same,TGI,OVCAR-4 ovarian,> 100 µM
same,TGI,HCT-116 colon,> 100 µM
same,TGI,UACC-62 melanoma,> 100 µM
same,TGI,MOLT-4 leukemia,> 100 µM
same,TGI,SW-620 colon,> 100 µM
same,TGI,A498 renal,> 100 µM
same,TGI,BT-549 breast,> 100 µM
same,TGI,HCC-2998 colon,> 100 µM
same,TGI,IGROV1 ovarian,> 100 µM
same,TGI,CAKI-1 renal,> 100 µM
same,TGI,SK-MEL-28 melanoma,> 100 µM
same,TGI,M14 melanoma,> 100 µM
same,TGI,MDA-MB-435,> 100 µM
same,TGI,UO-31 renal,> 100 µM
same,TGI,LOX IMVI melanoma,> 100 µM
same,TGI,NCI-H460 lung,> 100 µM
same,TGI,SNB-19 CNS,> 100 µM
same,TGI,NCI-H23 lung,> 100 µM
same,TGI,786-0 renal,> 100 µM
same,TGI,U251 CNS,> 100 µM
same,TGI,HCT-15 colon,> 100 µM
same,TGI,SK-MEL-5 melanoma,> 100 µM
same,TGI,SR leukemia,> 100 µM
same,TGI,SNB-75 CNS,> 100 µM
same,TGI,K-562 leukemia,> 100 µM
same,TGI,RXF 393 renal,> 100 µM
same,TGI,HL-60(TB) leukemia,> 100 µM
same,TGI,OVCAR-5 ovarian,> 100 µM
same,TGI,ACHN renal,> 100 µM
same,TGI,NCI-H226 lung,> 100 µM
same,TGI,RPMI-8226 leukemia,> 100 µM
same,TGI,DU-145 prostate,> 100 µM
same,TGI,NCI/ADR-RES ovarian,> 100 µM
same,TGI,SF-539 CNS,> 100 µM
same,TGI,MDA-N,> 100 µM
same,TGI,SF-295 CNS,> 100 µM
same,TGI,SK-OV-3 ovarian,> 100 µM
same,TGI,OVCAR-8 ovarian,> 100 µM
same,TGI,COLO 205 colon,> 100 µM
same,TGI,A549 NSCLC,> 100 µM
same,TGI,HOP-62 NSCLC,> 100 µM
same,TGI,UACC-257 melanoma,> 100 µM
same,TGI,KM12 colon,> 100 µM
same,TGI,MCF7 breast,> 100 µM
same,TGI,MALME-3M melanoma,> 100 µM
same,TGI,CCRF-CEM leukemia,> 100 µM
